Experimental data: publication PMC9403976, “Elucidating the path to Plasmodium prolyl-tRNA synthetase inhibitors that overcome halofuginone resistance” (Nature Communications, 2022)
“And” between values parts separate entries of the source, which are not always exact repeats. Equal entries are not always repeated. Where two headings read alike, the source gives them in different places.

Experiments:
HsProRS = HsProRS (Homo sapiens, UniProt P07814); test: TR-FRET ligand displacement assay with tracer MAT379 (CoraFluor-1-Halo and anti-His6 antibody formats); type: binding; parameters: made in house; host or cells: E. coli SoluBL-21; details: for TR-FRET dose-response, normalized signal (SI Fig 11): individual replicates
P. falciparum Dd2-2D4 = test: P. falciparum asexual blood stage (ABS) growth assay, SYBR Green, 72 h, wild-type parasites; type: cell-based, Plasmodium falciparum; details: Plasmodium falciparum, DD2; SI Fig 16b; values on -log scale; read-out: ABS - Dd2-2D4 (converted)
PfcProRS = biological target: T1, PfcProRS (Plasmodium falciparum, UniProt Q8I5R7); type: binding; details: for dose-response signal (normalized), SI Fig 8: single replicates
T1 construct: made in house; host or cells: E. coli SoluBL-21
T1 sequence (Q8I5R7 249-746): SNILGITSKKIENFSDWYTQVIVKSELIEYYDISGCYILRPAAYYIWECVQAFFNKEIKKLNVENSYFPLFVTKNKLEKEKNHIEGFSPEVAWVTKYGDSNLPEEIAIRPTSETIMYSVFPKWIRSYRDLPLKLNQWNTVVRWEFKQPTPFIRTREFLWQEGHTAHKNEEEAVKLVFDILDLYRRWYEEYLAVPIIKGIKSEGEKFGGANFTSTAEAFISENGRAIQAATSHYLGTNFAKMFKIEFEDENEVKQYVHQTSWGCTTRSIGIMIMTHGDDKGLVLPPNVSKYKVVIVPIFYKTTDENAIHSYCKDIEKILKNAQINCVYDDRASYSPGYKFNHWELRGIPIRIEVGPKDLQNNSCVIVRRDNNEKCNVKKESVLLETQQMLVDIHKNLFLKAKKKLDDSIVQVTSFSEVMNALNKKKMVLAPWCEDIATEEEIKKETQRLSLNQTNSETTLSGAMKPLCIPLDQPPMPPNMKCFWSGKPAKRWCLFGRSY

HsProRS, sequence (P07814 996-1512): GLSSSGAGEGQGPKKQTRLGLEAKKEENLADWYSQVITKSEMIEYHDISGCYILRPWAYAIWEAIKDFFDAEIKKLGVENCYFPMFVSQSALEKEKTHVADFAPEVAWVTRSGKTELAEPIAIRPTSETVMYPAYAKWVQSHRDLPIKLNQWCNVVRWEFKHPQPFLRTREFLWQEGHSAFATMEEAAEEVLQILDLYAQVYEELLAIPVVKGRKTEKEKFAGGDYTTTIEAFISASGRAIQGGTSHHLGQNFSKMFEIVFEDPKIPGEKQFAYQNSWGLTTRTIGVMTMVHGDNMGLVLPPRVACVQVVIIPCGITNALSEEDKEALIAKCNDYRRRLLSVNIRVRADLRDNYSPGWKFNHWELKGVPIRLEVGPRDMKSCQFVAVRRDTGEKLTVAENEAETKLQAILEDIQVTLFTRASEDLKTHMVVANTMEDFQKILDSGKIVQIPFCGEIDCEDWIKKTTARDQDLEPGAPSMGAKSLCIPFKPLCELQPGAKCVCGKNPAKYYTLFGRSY

O=C(Nc1nccnc1C(=O)NC1Cc2ccccc2C1)c1ccccc1 [compound 21]
Kd (HsProRS; HsProRS (KD [nM]) mean, no added proline/ATP (-)): 7830 nM
Kd (HsProRS; HsProRS - best Kd, SI Fig 16a, values on -log scale): 140 nM
normalized TR-FRET ligand displacement signal, dose-response replicates (SI Fig 6) (HsProRS; Log[inhibitor] (M) -5.000): 5.46E-01 and 5.55E-01 and 4.94E-01
TR-FRET dose-response, normalized signal (SI Fig 11) (HsProRS; Log[inhibitor] (M) -5.000): 4.76E-01 and 4.38E-01 and 4.70E-01
normalized TR-FRET ligand displacement signal, dose-response replicates (SI Fig 6) (HsProRS; Log[inhibitor] (M) -5.301): 7.40E-01 and 7.43E-01 and 7.80E-01
TR-FRET dose-response, normalized signal (SI Fig 11) (HsProRS; Log[inhibitor] (M) -5.301): 6.10E-01 and 6.26E-01 and 6.30E-01
normalized TR-FRET ligand displacement signal, dose-response replicates (SI Fig 6) (HsProRS; Log[inhibitor] (M) -5.601): 9.19E-01 and 8.75E-01 and 9.42E-01
TR-FRET dose-response, normalized signal (SI Fig 11) (HsProRS; Log[inhibitor] (M) -5.601): 7.50E-01 and 7.65E-01 and 7.70E-01
normalized TR-FRET ligand displacement signal, dose-response replicates (SI Fig 6) (HsProRS; Log[inhibitor] (M) -5.904): 9.17E-01 and 1.01E+00 and 8.04E-01
TR-FRET dose-response, normalized signal (SI Fig 11) (HsProRS; Log[inhibitor] (M) -5.904): 8.93E-01 and 9.01E-01 and 8.63E-01
normalized TR-FRET ligand displacement signal, dose-response replicates (SI Fig 6) (HsProRS; Log[inhibitor] (M) -6.208): 9.67E-01 and 9.54E-01 and 1.10E+00
TR-FRET dose-response, normalized signal (SI Fig 11) (HsProRS; Log[inhibitor] (M) -6.208): 8.73E-01 and 9.00E-01 and 9.32E-01
normalized TR-FRET ligand displacement signal, dose-response replicates (SI Fig 6) (HsProRS; Log[inhibitor] (M) -6.509): 9.94E-01 and 9.87E-01 and 9.37E-01
TR-FRET dose-response, normalized signal (SI Fig 11) (HsProRS; Log[inhibitor] (M) -6.509): 9.94E-01 and 8.74E-01 and 9.48E-01
normalized TR-FRET ligand displacement signal, dose-response replicates (SI Fig 6) (HsProRS; Log[inhibitor] (M) -6.796): 1.04E+00 (2×) and 9.65E-01
TR-FRET dose-response, normalized signal (SI Fig 11) (HsProRS; Log[inhibitor] (M) -6.796): 9.17E-01 and 9.74E-01 and 9.27E-01
normalized TR-FRET ligand displacement signal, dose-response replicates (SI Fig 6) (HsProRS; Log[inhibitor] (M) -7.108): 1.01E+00 and 1.08E+00 and 1.09E+00
TR-FRET dose-response, normalized signal (SI Fig 11) (HsProRS; Log[inhibitor] (M) -7.108): 9.75E-01 and 8.96E-01 and 1.01E+00
normalized TR-FRET ligand displacement signal, dose-response replicates (SI Fig 6) (HsProRS; Log[inhibitor] (M) -7.409): 1.16E+00 and 9.90E-01 and 9.46E-01
TR-FRET dose-response, normalized signal (SI Fig 11) (HsProRS; Log[inhibitor] (M) -7.409): 9.43E-01 and 9.53E-01 and 9.38E-01
normalized TR-FRET ligand displacement signal, dose-response replicates (SI Fig 6) (HsProRS; Log[inhibitor] (M) -7.710): 1.13E+00 and 9.28E-01 and 1.00E+00
TR-FRET dose-response, normalized signal (SI Fig 11) (HsProRS; Log[inhibitor] (M) -7.710): 1.01E+00 and 9.57E-01 and 9.99E-01
normalized TR-FRET ligand displacement signal, dose-response replicates (SI Fig 6) (HsProRS; Log[inhibitor] (M) -8.000): 1.06E+00 and 9.95E-01 and 9.77E-01
TR-FRET dose-response, normalized signal (SI Fig 11) (HsProRS; Log[inhibitor] (M) -8.000): 9.75E-01 and 9.47E-01 and 9.43E-01
normalized TR-FRET ligand displacement signal, dose-response replicates (SI Fig 6) (HsProRS; Log[inhibitor] (M) -8.301): 9.85E-01 and 1.04E+00 and 1.05E+00
TR-FRET dose-response, normalized signal (SI Fig 11) (HsProRS; Log[inhibitor] (M) -8.301): 8.99E-01 and 9.31E-01 and 9.94E-01
normalized TR-FRET ligand displacement signal, dose-response replicates (SI Fig 6) (HsProRS; Log[inhibitor] (M) -8.602): 9.47E-01 and 9.26E-01 and 9.87E-01
TR-FRET dose-response, normalized signal (SI Fig 11) (HsProRS; Log[inhibitor] (M) -8.602): 9.70E-01 and 9.30E-01 and 9.54E-01
normalized TR-FRET ligand displacement signal, dose-response replicates (SI Fig 6) (HsProRS; Log[inhibitor] (M) -9.000): 9.16E-01 and 9.83E-01 and 9.58E-01
TR-FRET dose-response, normalized signal (SI Fig 11) (HsProRS; Log[inhibitor] (M) -9.000): 9.06E-01 and 1.03E+00 and 9.30E-01
normalized TR-FRET ligand displacement signal, dose-response replicates (SI Fig 6) (HsProRS; Log[inhibitor] (M) -9.301): 8.87E-01 and 1.01E+00 (2×)
TR-FRET dose-response, normalized signal (SI Fig 11) (HsProRS; Log[inhibitor] (M) -9.301): 9.47E-01 and 9.42E-01 and 9.85E-01
EC50 (P. falciparum Dd2-2D4): 9.59 µM
dose-response signal (normalized), SI Fig 8 (PfcProRS; Log[inhibitor] (M) -5.000): 2.91E-01 and 3.96E-01 and 3.40E-01
dose-response signal (normalized), SI Fig 8 (PfcProRS; Log[inhibitor] (M) -5.301): 6.52E-01 and 5.68E-01 and 6.33E-01
dose-response signal (normalized), SI Fig 8 (PfcProRS; Log[inhibitor] (M) -5.601): 7.76E-01 and 6.88E-01 and 8.76E-01
dose-response signal (normalized), SI Fig 8 (PfcProRS; Log[inhibitor] (M) -5.904): 1.01E+00 and 9.17E-01 and 9.47E-01
dose-response signal (normalized), SI Fig 8 (PfcProRS; Log[inhibitor] (M) -6.208): 1.01E+00 and 1.00E+00 and 8.81E-01
dose-response signal (normalized), SI Fig 8 (PfcProRS; Log[inhibitor] (M) -6.509): 9.40E-01 and 8.71E-01 and 1.01E+00
dose-response signal (normalized), SI Fig 8 (PfcProRS; Log[inhibitor] (M) -6.796): 1.06E+00 and 9.99E-01 and 1.08E+00
dose-response signal (normalized), SI Fig 8 (PfcProRS; Log[inhibitor] (M) -7.108): 9.00E-01 and 9.54E-01 and 9.75E-01
dose-response signal (normalized), SI Fig 8 (PfcProRS; Log[inhibitor] (M) -7.409): 1.04E+00 and 1.03E+00 and 9.91E-01
dose-response signal (normalized), SI Fig 8 (PfcProRS; Log[inhibitor] (M) -7.710): 9.51E-01 and 8.62E-01 and 1.00E+00
dose-response signal (normalized), SI Fig 8 (PfcProRS; Log[inhibitor] (M) -8.000): 9.32E-01 and 1.04E+00 and 9.09E-01
dose-response signal (normalized), SI Fig 8 (PfcProRS; Log[inhibitor] (M) -8.301): 9.87E-01 and 9.76E-01 and 8.57E-01
dose-response signal (normalized), SI Fig 8 (PfcProRS; Log[inhibitor] (M) -8.602): 1.04E+00 (2×) and 9.76E-01
dose-response signal (normalized), SI Fig 8 (PfcProRS; Log[inhibitor] (M) -9.000): 9.49E-01 and 9.11E-01 and 1.01E+00
dose-response signal (normalized), SI Fig 8 (PfcProRS; Log[inhibitor] (M) -9.301): 1.10E+00 and 1.02E+00 and 1.05E+00
PfcProRS -- best Kd (PfcProRS; SI Fig 16a, values on -log scale): 5.845
